Measurements from paper PMC4839297, “HTS-Driven Discovery of New Chemotypes with West Nile Virus Inhibitory Activity” (Molecules, 2010).
Read-outs that look alike come from different tables or passages of the source.

Columns and labels:
[1] = Cytotoxicity in dose-response format (CellTiter-Glo); type: cell-based; conditions: African green monkey, Vero E6 cells (uninfected)
Description: (§1) To confirm the activity and to test the cytotoxicity, the top 110 inhibitory compounds were evaluated in a dose response assay using the identical screen.
Cytotoxicity and antiviral efficacy were performed in a dose-response format in parallel. Compounds were serially diluted in complete media (MEM-E) with a 0.5% DMSO final concentration and adding 5 μL to cell plates, identical to the stacked plate method. […] Virus (0.04 MOI) or media was added for antiviral effect or cytotoxicity respectively. The plates were incubated 96 h in a 5% CO2 incubator at 37 °C. Cell viability was measured as stated above. The serially diluted compounds were also used for time of addition studies adding to the infected cells in 384-well plates at -1, 4, 8 and18 h post-infection with WNV (0.02 MOI). The plates were then developed as above 96 h after infection. The EC50 value was calculated for each time of addition point.
(§2) The Z′ value was employed to evaluate the assay’s robustness and was calculated from 1-(3×standard deviation of cell control (σc) + 3* standard deviation of the virus control (σv)/ [mean cell control signal (μc) minus mean virus control signal (μv)]). The signal/background (S/B) was calculated from the mean cell control signal (μc) divided by the mean virus control signal (μv). The signal/noise (S/N) was calculated from mean cell control signal (μc) minus mean virus control signal (μv) divided by the (standard deviation of the cell control signal (σc)^2 […] the standard deviation of the virus control signal (σv)^2)^1/2 [24]. The effective concentration at which the drug inhibited cell death at 50% in the presence of virus (EC50) and the cytotoxicity of the drug alone at 50% (CC50) were calculated using ActivityBase software (IDBS, Inc, Guildford, UK). CPE inhibition (%) and cell viability were calculated as described in elsewhere. The standard curve analysis function in SigmaPlot™ was used to calculate the inhibitory concentration (IC50 and IC50 values) for the protease and titer reduction assays.

[2] = system: WNV (NY-99 strain) infection of Vero E6 cells; experiment: Time of addition assay in dose response format; type: cell-based, West Nile virus; conditions: for EC50 change pattern (time of addition): Table 2; for EC50 change pattern over the course of infection: Table 3, compound added at -1, 4, 8, 18 h post-infection; for EC50: West Nile virus, Vero C1008, 18 h, read-out: EC50 in time of addition assay
Description: The compounds selected by the primary and dose response screening were re-supplied from the suppliers as a solid form except 4 compounds; SMR000394098, SMR000059052, SMR000027739 and SRI-4578, which were not available at that time (Table 1). Time of addition assays were conducted in a dose response format with the 20 compounds. Serially diluted compounds were added to Vero E6 cells at -1, 4, 8 and 18 h post-infection. Luminescent data was calculated (as above) to obtain EC50 values for each compound at each time point of addition.
The EC50 of MPA was within a range of 2.0~5.0 μM regardless of when it was added.
(§3) Cytotoxicity and antiviral efficacy were performed in a dose-response format in parallel. Compounds were serially diluted in complete media (MEM-E) with a 0.5% DMSO final concentration and adding 5 μL to cell plates, identical to the stacked plate method. A ten point, two-fold dilution series of compound concentrations ranging from 30 μM to 0.059 μM were used in the assay. Virus (0.04 MOI) or media was added for antiviral effect or cytotoxicity respectively. The plates were incubated 96 h in a 5% CO2 incubator at 37 °C. Cell viability was measured as stated above. The serially diluted compounds were also used for time of addition studies adding to the infected cells in 384-well plates at -1, 4, 8 and18 h post-infection with WNV (0.02 MOI). The plates were then developed as above 96 h after infection. The EC50 value was calculated for each time of addition point.

[3] = system: WNV (NY-99 strain) infection of Vero E6 cells; experiment: Dose response assay in CPE based screen (antiviral efficacy); type: cell-based, West Nile virus
Description: as §1
After reviewing the data from the primary screen, 110 compounds were selected for a dose-response study. The same compound stocks (10 mM in 100% DMSO) were used to select 7 μL of the compounds into a low-volume, 384-well plate. The dose response plates were prepared using a “stacked-plate” format using a 1:2 dilution series for a total of ten concentrations. By using this format, each entire plate represents one of the ten concentrations in the dilution series. A 5 μL aliquot of each of the serial dilution plates was transferred to the assay plates along with an equal volume but separate transfer of controls. With the addition of 20 μL of cells and 5 μL of virus, the final test concentrations for the dose response screen were 30 μM, 15 μM, 7.5 μM, 3.75 μM, 1.875 μM, 0.9375 μM, 0.4688 μM, 0.2344 μM, 0.1172 μM, and 0.0586 μM all at […].
as §3, §2

[4] = system: WNV progeny virus in Vero E6 cells; experiment: Titer reduction assay (TCID50 of progeny virus); type: cell-based, West Nile virus; parameters: SI50 *: unit not given beside the values; conditions: for SI50 *: Table 3, footnote to * not given; for EC90 / inhibition at 15 µM / EC50: West Nile virus; for EC90 / EC50: Vero C1008, 48 h; for EC90: read-out: Dose response in Titer reduction EC90; for inhibition at 15 µM: Vero C1008, read-out: inhibition of progeny virus titer; for EC50: read-out: Dose response in Titer reduction EC50
Description: Finally, we employed a titer reduction assay to confirm the antiviral activity of the seven compounds confirmed in the assays. The titer of the progeny virus produced in the presence of the compounds was measured in TCID50 format. […] The titer reduction assay confirmed the antiviral activity of the hit compounds selected through our pathway (Figure 6).
Vero E6 cells were seeded in a 12-well plate in a volume of 1 mL and incubated overnight at 37 °C and 5% CO2. The next day media was aspirated from the cells and they were infected by adsorption of WNV (0.1 MOI) for one hour in 100 μL media. After aspirating the virus and washing the cells with phosphate buffered saline, media was replenished containing compounds at various concentrations. The plates were incubated for 48 h. Progeny virus titer was measured by TCID50 assay in 384-well plate format with 6 wells per dilution of virus. CellTiter-Glo® reagent was employed to determine a cell death which is a sign of infection. A well with a luminescence signal less than the mean of the non-infected control signal, minus 5 times the standard deviation of the control, was regarded as a positive infection. The TCID50 was calculated with the numbers of positive infection and negative infection by the Reed-Muench method.

WNV NS2b-NS3pro = target: T1, WNV NS2b-NS3pro (West Nile virus, UniProt Q9Q6P4); experiment: WNV NS2b-NS3pro FRET based enzymatic assay; type: biochemical
T1 construct: A recombinant NS3 protease expressed and purified from E.coli; purchased AnaSpec Inc (CA, USA); host or cells: E. coli
Description: The results from the time of addition assay led us to examine the NS3 protease as a potential target of the hit compounds. NS3 protease is an important enzyme responsible for the maturation of viral proteins at early stage during the replication of virus in the host cells. We tested the compounds for an inhibitory activity on NS3 protease using a FRET based, in vitro, enzymatic assay.
A recombinant NS3 protease expressed and purified from E.coli with the cofactor NS2b (residues 49-96) and a fluorescence resonance energy transfer (FRET) based assay kit were purchased from AnaSpec Inc (CA, USA). We followed an assay protocol published on line at PubChem by University of Pittsburgh Molecular Library Screening Center (http://www.ncbi.nlm.nih.gov/, AID:577). The assay was performed in a 384-well format with 10 ng/well of NS2b-NS3pro enzyme.

[5] = system: WNV (NY-99 strain) infection of Vero E6 cells; experiment: Single dose primary HTS, CPE based (CellTiter-Glo), 384-well; type: cell-based, West Nile virus
[6] = Table 1, Vero E6 without virus, 96 h, read-out: CC50
[7] = Table 3, Vero E6, read-out: Dose response in CPE based CC50
[8] = West Nile virus, Vero C1008, 96 h, Table 1, CPE based dose response, Vero E6, WNV 0.04 MOI, 96 h
[9] = West Nile virus, Vero C1008, read-out: Dose response in CPE based EC50, Table 3, Vero E6, WNV
[10] = Table 1, CPE based dose response, Vero E6, WNV 0.04 MOI, 96 h, read-out: EC50

T1 sequence (Q9Q6P4 1506-1683 limits assumed, looked up): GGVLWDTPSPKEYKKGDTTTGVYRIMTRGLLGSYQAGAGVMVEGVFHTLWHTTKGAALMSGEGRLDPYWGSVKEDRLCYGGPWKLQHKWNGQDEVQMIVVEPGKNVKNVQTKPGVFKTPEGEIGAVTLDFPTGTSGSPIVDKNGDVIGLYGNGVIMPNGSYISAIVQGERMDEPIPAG
T1 sequence (Q9Q6P4 1423-1470 partner limits assumed, looked up): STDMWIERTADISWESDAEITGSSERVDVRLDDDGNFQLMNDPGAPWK

C[C@@H]1Cc2ccccc2N1S(=O)(=O)c1cccc(C(=O)N2CCN(c3ncccn3)CC2)c1 [SMR000370276]
CC50 at 96 h [1, 6]: > 100 µM | CC50 at 96 h [1, 7]: > 30 µM | EC50 change pattern (time of addition) [2]: Increase: EC50_1hr ≈ EC50_4hr ≤ EC50_8hr < EC50_18hr | EC50 change pattern over the course of infection [2]: Increase | SI50 (Selectivity Index 50, ratio of CC50 to EC50) ([3]; Table 1): >5.3 | EC50 [3, 8]: 18.9 µM | EC50 [3, 9]: 18.9 µM | SI50 * [4]: >5 | Dose response in Titer reduction EC50 ([4]; Vero E6, WNV 0.1 MOI, 48 h post-infection): No solution | EC90 [4]: 6.07 µM | inhibition at 15 µM [4]: 98.8%

CC(C)C[C@H](NC(=O)c1nc[nH]c1C(=O)N1CCN(C(=O)OC(C)(C)C)CC1)C(=O)OC(C)(C)C [SMR000394098]
SI50 (Selectivity Index 50, ratio of CC50 to EC50) ([3]; Table 1): >5.1 | EC50 [3, 10]: 19.6 µM

O=C(O)c1ccccc1Nc1ccccc1 [N-Phenylanthranilic acid, reference compound]
anti-NS2b-NS3pro activity (in words) (WNV NS2b-NS3pro): could not detect any significant activity

CC(=O)OC[C@H]1O[C@@H](n2ncc(=O)[nH]c2=O)[C@H](OC(C)=O)[C@@H]1OC(C)=O [SMR000059052]
SI50 (Selectivity Index 50, ratio of CC50 to EC50) ([3]; Table 1): >5.0 | EC50 [3, 10]: 20 µM

Cc1oc(-c2ccccc2Cl)nc1CSCC(=O)N1CCCC1 [SMR000027739]
SI50 (Selectivity Index 50, ratio of CC50 to EC50) ([3]; Table 1): >3.4 | EC50 [3, 10]: 29.6 µM

COc1c(C)c2c(c(O)c1C/C=C(\C)CCC(=O)O)C(=O)OC2 [MPA, mycophenolic acid, reference compound]
CC50 at 96 h [1, 7]: > 30 µM | EC50 change pattern (time of addition) [2]: No Change : EC50_1hr ≈ EC50_4hr ≈ EC50_8hr ≈ EC50_18hr | EC50 change pattern over the course of infection [2]: no change | EC50 [2]: 2 to 5 µM | SI50 * [4]: >1000 | EC50 [4]: 0.03 µM | EC90 [4]: 0.94 µM | inhibition at 5 µg/mL ([5]; West Nile virus, Vero C1008, read-out: inhibition on average in primary screen): 44.6% | protection ([5]; assay optimization, MOI 0.04, 384-well): 30%

COc1cc(-c2ccc(Nc3ccccc3C(=O)O)c(OC)c2)ccc1Nc1ccccc1C(=O)O [SRI-19093, Redoxal]
CC50 at 96 h [1, 6]: > 100 µM | CC50 at 96 h [1, 7]: > 30 µM | EC50 change pattern over the course of infection [2]: Increase | EC50 [2]: 3.2 to 6.4 µM | SI50 (Selectivity Index 50, ratio of CC50 to EC50) ([3]; Table 1): >2.4 | EC50 [3, 8]: 41 µM | EC50 [3, 9]: 41 µM | SI50 * [4]: >200 | EC50 [4]: 0.13 µM | EC90 [4]: 2.14 µM | inhibition at 15 µM [4]: 93.7% | anti-NS2b-NS3pro activity (in words) (WNV NS2b-NS3pro): inhibited viral protease in vitro

O=C(O)c1ccccc1Nc1ccc([N+](=O)[O-])cc1 [SMR000171908]
CC50 at 96 h [1, 6]: > 100 µM | CC50 at 96 h [1, 7]: > 30 µM | EC50 change pattern (time of addition) [2]: Increase: EC50_1hr ≈ EC50_4hr ≤ EC50_8hr < EC50_18hr | EC50 change pattern over the course of infection [2]: Increase | SI50 (Selectivity Index 50, ratio of CC50 to EC50) ([3]; Table 1): >3.3 | EC50 [3, 8]: 30.4 µM | EC50 [3, 9]: 30.4 µM | SI50 * [4]: >25 | EC50 [4]: 1.16 µM | EC90 [4]: 6.73 µM

COc1cccc2c(=O)n3c(nc12)/C(=C/c1ccc2c(c1)OCO2)CC3 [SRI-22003]
CC50 at 96 h [1, 6]: > 100 µM | CC50 at 96 h [1, 7]: > 30 µM | EC50 change pattern (time of addition) [2]: Increase: EC50_1hr ≈ EC50_4hr ≤ EC50_8hr < EC50_18hr | EC50 change pattern over the course of infection [2]: Increase | SI50 (Selectivity Index 50, ratio of CC50 to EC50) ([3]; Table 1): >8.2 | EC50 [3, 8]: 12.2 µM | EC50 [3, 9]: 12.2 µM | SI50 * [4]: >6 | EC50 [4]: 4.7 µM | EC90 [4]: 5.13 µM | inhibition at 15 µM [4]: 98.8%
